In US10093683B2, “Factor XIa inhibitors” (Merck Sharp & Dohme Corp., priority 2014, dated 2018):
Read-outs that look alike come from different tables or passages of the source.

Columns and labels:
human Factor XIa = human Factor XIa (Homo sapiens (Human), UniProt P03951); assay: Factor XIa Assay; assay type: biochemical; conditions: read-out: FXIa Ki
Procedure, shortened: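 Ki derived from the dependence of Vo/Vi on inhibitor concentration under a competitive-inhibition model, after pre-equilibration of enzyme and inhibitor. Reaction: 40 pM human FXIa, 100 μM Z-Gly-Pro-Arg-AFC, HEPES 50 mM pH 7.4 with NaCl, CaCl2 and PEG 8000; run at room temperature or 37° C.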

Human plasma kallikrein = Human plasma kallikrein (Homo sapiens (Human), UniProt P03952); assay: Kallikrein Assay; assay type: biochemical; conditions: purified Human plasma kallikrein 0.5 nM, Acetyl-K-P-R-AFC, pH 7.4; Ki from IC50 by Cheng Prusoff
Chain of Human plasma kallikrein (P03952 391-638): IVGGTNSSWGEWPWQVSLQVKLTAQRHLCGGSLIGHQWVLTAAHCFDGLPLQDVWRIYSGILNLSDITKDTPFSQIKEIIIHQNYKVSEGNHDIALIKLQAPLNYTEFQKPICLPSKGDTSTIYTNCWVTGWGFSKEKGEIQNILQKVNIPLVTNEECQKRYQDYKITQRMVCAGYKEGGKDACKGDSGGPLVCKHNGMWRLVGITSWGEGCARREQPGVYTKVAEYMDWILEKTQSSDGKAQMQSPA
Chain of Human plasma kallikrein (P03952 20-390 partner): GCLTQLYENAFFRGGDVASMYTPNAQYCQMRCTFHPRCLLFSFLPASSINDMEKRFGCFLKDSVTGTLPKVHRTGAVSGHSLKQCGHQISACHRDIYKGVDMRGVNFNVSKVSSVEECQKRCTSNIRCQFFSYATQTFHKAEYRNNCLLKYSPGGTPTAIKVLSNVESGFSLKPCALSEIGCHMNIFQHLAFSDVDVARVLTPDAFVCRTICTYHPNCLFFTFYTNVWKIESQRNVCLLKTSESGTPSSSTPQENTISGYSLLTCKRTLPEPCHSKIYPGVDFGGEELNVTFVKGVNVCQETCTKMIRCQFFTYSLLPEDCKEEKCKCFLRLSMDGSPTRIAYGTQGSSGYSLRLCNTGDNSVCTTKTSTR
Procedure, shortened: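 Purified human plasma kallikrein (0.5 nM final) with Acetyl-K-P-R-AFC substrate ([…]) in 50 mM HEPES pH 7.4, 150 mM NaCl, 5 mM CaCl2, 0.1% PEG 8000, after enzyme-inhibitor equilibration. Fluorescence (405 ex/510 em) under linear conditions; IC50 from four-parameter fit, converted to Ki by Cheng-Prusoff.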

[1] = purified human Factor XIa 40 pM, Z-Gly-Pro-Arg-AFC 100 μM, pH 7.4

Chain of human Factor XIa (P03951 388-625): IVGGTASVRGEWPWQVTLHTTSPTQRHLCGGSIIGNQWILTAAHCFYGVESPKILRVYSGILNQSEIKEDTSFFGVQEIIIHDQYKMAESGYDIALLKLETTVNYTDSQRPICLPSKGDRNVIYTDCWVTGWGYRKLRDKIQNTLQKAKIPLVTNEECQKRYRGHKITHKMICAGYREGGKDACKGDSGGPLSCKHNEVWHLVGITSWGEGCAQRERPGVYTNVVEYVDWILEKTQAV
Chain of human Factor XIa (P03951 19-387 partner): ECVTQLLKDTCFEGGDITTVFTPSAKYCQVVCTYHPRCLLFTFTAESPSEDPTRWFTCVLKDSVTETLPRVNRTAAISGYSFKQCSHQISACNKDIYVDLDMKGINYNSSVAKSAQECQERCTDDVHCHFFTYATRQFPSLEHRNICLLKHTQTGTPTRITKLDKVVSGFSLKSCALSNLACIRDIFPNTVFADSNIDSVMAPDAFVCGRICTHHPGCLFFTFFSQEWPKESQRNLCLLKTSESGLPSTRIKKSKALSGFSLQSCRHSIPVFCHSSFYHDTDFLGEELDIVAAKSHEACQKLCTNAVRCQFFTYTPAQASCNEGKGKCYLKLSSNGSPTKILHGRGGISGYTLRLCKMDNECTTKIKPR

Row | Compound | Ki (human Factor XIa; [1]) [nM] | Ki (Human plasma kallikrein) [nM] | Ki (human Factor XIa) [nM]
1 | COC(=O)n1nc(N)c2ccc(C(=O)N[C@@H](Cc3ccccc3)C(=O)N3CC[C@@]4(C3)OC(=O)Nc3ccc(Cl)cc34)cc21 [Example 226, Methyl 3-amino-6-(((S)-1-((R)-6-chloro-2-oxo-1,2-dihydrospiro[benzo[d][1,3]oxazine-4,3′-pyrrolidin]-1′-yl)-1-oxo-3-phenylpropan-2-yl)carbamoyl)-1H-indazole-1-carboxylate] | – | 23.2 | 18.1
2 | O=C1Nc2ccc(Cl)c(F)c2[C@@]2(CCCN(C(=O)[C@H](Cc3ccccc3)NC(=O)c3ccc(B(O)O)s3)C2)O1 [Example 233] | – | 2.44 | 7.88
3 | O=C1Nc2ccc(Cl)c(F)c2[C@@]2(CCCN(C(=O)[C@H](CC3CC3)NC(=O)c3ccc4[nH]c(=O)ccc4c3)C2)O1 [Example 255] | – | 0.45 | 4
4 | Nc1n[nH]c2cc(C(=O)N[C@@H](Cc3ccccc3)C(=O)N3CCCC4(C3)OC(=O)Nc3ccc(Cl)c(F)c34)ccc12 (stereo partly shown) [Example 225] | – | 0.95 | 0.4
5 | NC(=O)c1ccc(C(=O)N[C@@H](Cc2ccccc2)C(=O)N2CCC[C@@]3(C2)OC(=O)Nc2ccc(Cl)c(F)c23)s1 [Example 245] | – | 0.65 | 0.97
6 | COC(=O)Nc1cnc(C(=O)N[C@@H](Cc2ccccc2)C(=O)N2CCC[C@@]3(C2)OC(=O)Nc2ccc(Cl)c(F)c23)nc1 [Example 234] | – | 3.03 | 16.9
7 | Nc1n[nH]c2cc(C(=O)N[C@@H](Cc3ccncc3)C(=O)N3CC[C@@]4(C3)OC(=O)Nc3ccc(Cl)cc34)ccc12 [Example 258] | – | 4.08 | 1.73
8 | Nc1n[nH]c2cc(C(=O)N[C@@H](Cc3ccccc3)C(=O)N3CC[C@@]4(C3)OC(=O)Nc3ccc(Cl)c(F)c34)ccc12 [Example 195] | – | 1.9 | 1
9 | Nc1noc2cc(C(=O)N[C@@H](Cc3ccccc3)C(=O)N3CC[C@@]4(C3)OC(=O)Nc3ccc(Cl)cc34)ccc12 [Example 217] | – | 3.2 | 2.3
10 | Nc1n[nH]c2cc(C(=O)N[C@@H](CC3CC3)C(=O)N3CCC[C@@]4(C3)OC(=O)Nc3ccc(Cl)cc34)ccc12 [Example 200] | – | 1 | 4.4
11 | O=C1Nc2ccc(Cl)c(F)c2[C@@]2(CCCN(C(=O)[C@H](Cc3ccccc3)NC(=O)c3ccc4[nH]c(=O)cc(O)c4c3)C2)O1 [Example 209] | – | 0.33 | 0.11
12 | O=C1COc2cc(C(=O)N[C@@H](Cc3ccccc3)C(=O)N3CCC4(C3)OC(=O)Nc3ccc(Cl)cc34)ccc2N1 (stereo partly shown) [Example 171] | – | 58 | 21.8

Now from value to compound:

Row | Ki (human Factor XIa; [1]) [nM] | Ki (Human plasma kallikrein) [nM] | Ki (human Factor XIa) [nM] | Compound
13 | 5.3 | 21.9 | – | COC(=O)Nc1ccc(C(=O)N[C@@H](Cc2ccc(F)cc2)C(=O)N2CC[C@@]3(C2)OC(=O)Nc2ccc(Cl)cc23)cc1 [Example 22, methyl (4-(((S)-1-((R)-6-chloro-2-oxo-1,2-dihydrospiro[benzo[d][1,3]oxazine-4,3′-pyrrolidin]-1′-yl)-3-(4-fluorophenyl)-1-oxopropan-2-yl)carbamoyl)phenyl)carbamate]
14 | 38.3 | 25.4 | – | COC(=O)Nc1ccc(C(=O)N[C@@H](CC(=O)NCc2ccnn2C)C(=O)N2CCC[C@@]3(C2)OC(=O)Nc2ccc(Cl)cc23)cc1 [Example 98, methyl (4-(((S)-1-((R)-6-chloro-2-oxo-1,2-dihydrospiro[benzo[d][1,3]oxazine-4,3′-piperidin]-1′-yl)-4-(((1-methyl-1H-pyrazol-5-yl)methyl)amino)-1,4-dioxobutan-2-yl)carbamoyl)phenyl)carbamate]
15 | 4.44 | 3.51 | – | COC(=O)Nc1ccc(C(=O)N[C@@H](Cc2ccccc2)C(=O)N2CC[C@@]3(C2)OC(=O)Nc2ccc(Cl)c(F)c23)cc1 [Example 7, methyl (4-(((S)-1-((R)-6-chloro-5-fluoro-2-oxo-1,2-dihydrospiro[benzo[d][1,3]oxazine-4,3′-pyrrolidin]-1′-yl)-1-oxo-3-phenylpropan-2-yl)carbamoyl)phenyl)carbamate]
16 | – | 4.74 | 35.1 | CC(C)OC(=O)Nc1ccc(C(=O)N[C@@H](Cc2ccccc2)C(=O)N2CCC[C@@]3(C2)OC(=O)Nc2ccc(Cl)c(F)c23)cc1 [Example 231, isopropyl (4-(((S)-1-((R)-6-chloro-5-fluoro-2-oxo-1,2-dihydrospiro[benzo[d][1,3]oxazine-4,3′-piperidin]-1′-yl)-1-oxo-3-phenylpropan-2-yl)carbamoyl)phenyl)carbamate]
17 | – | 30.9 | 5.48 | O=C(Nc1ccc(C(=O)N[C@@H](Cc2ccccc2)C(=O)N2CCC3(C2)OC(=O)Nc2ccc(Cl)cc23)cc1)OC[C@@H]1CCCO1 (stereo partly drawn) [Example 194, ((S)-tetrahydrofuran-2-yl)methyl (4-(((2S)-1-(6-chloro-2-oxo-1,2-dihydrospiro[benzo[d][1,3]oxazine-4,3′-pyrrolidin]-1′-yl)-1-oxo-3-phenylpropan-2-yl)carbamoyl)phenyl)carbamate]
18 | 52 | 147 | – | COC(=O)Nc1ccc(C(=O)N[C@@H](CC(C)O)C(=O)N2CCC3(C2)OC(=O)Nc2ccc(Cl)cc23)cc1 (stereo partly drawn) [Example 110, methyl (4-(((2S)-1-((R)-6-chloro-2-oxo-1,2-dihydrospiro[benzo[d][1,3]oxazine-4,3′-pyrrolidin]-1′-yl)-4-hydroxy-1-oxopentan-2-yl)carbamoyl)phenyl)carbamate]
19 | – | 1.49 | 4.28 | CC(=O)Nc1ccc(C(=O)N[C@@H](Cc2ccccc2)C(=O)N2CCC[C@@]3(C2)OC(=O)Nc2ccc(Cl)c(F)c23)cc1 [Example 240, 4-acetamido-N-((S)-1-((R)-6-chloro-5-fluoro-2-oxo-1,2-dihydrospiro[benzo[d][1,3]oxazine-4,3′-piperidin]-1′-yl)-1-oxo-3-phenylpropan-2-yl)benzamide]
20 | 7.51 | 4.78 | – | COC(=O)Nc1ccc(C(=O)NC(C[C@@H]2CCCO2)C(=O)N2CCC[C@@]3(C2)OC(=O)Nc2ccc(Cl)c(F)c23)cc1 (single isomer, unassigned) [Example 116A]
21 | – | < 1.36 | 2.02 | Cc1[nH]c2ccc(C(=O)N[C@@H](Cc3ccccc3)C(=O)N3CCC[C@@]4(C3)OC(=O)Nc3ccc(Cl)cc34)cc2c1C(=O)O [Example 249]
22 | 7.12 | 11.7 | – | COC(=O)Nc1ccc(C(=O)N[C@@H](Cc2ccc(-c3conc3C)cc2)C(=O)N2CC[C@@]3(C2)OC(=O)Nc2ccc(Cl)cc23)cc1 [Example 82, methyl (4-(((S)-1-((R)-6-chloro-2-oxo-1,2-dihydrospiro[benzo[d][1,3]oxazine-4,3′-pyrrolidin]-1′-yl)-3-(4-(3-methylisoxazol-4-yl)phenyl)-1-oxopropan-2-yl)carbamoyl)phenyl)carbamate]
23 | – | 0.65 | 3.22 | O=C(Nc1ccc(C(=O)N[C@@H](Cc2ccc(F)cc2)C(=O)N2CCC[C@@]3(C2)OC(=O)Nc2ccc(Cl)c(F)c23)cc1)OCCc1nnn[nH]1 [Example 274, 2-(1H-tetrazol-5-yl)ethyl (4-(((S)-1-((R)-6-chloro-5-fluoro-2-oxo-1,2-dihydrospiro[benzo[d][1,3]oxazine-4,3′-piperidin]-1′-yl)-3-(4-fluorophenyl)-1-oxopropan-2-yl)carbamoyl)phenyl)carbamate]
24 | 15.5 | 2.21 | – | COC(=O)Nc1ccc(C(=O)N[C@@H](Cc2cncn2C)C(=O)N2CCC[C@@]3(C2)OC(=O)Nc2ccc(Cl)cc23)cc1 [Example 53, methyl (4-(((S)-1-((R)-6-chloro-2-oxo-1,2-dihydrospiro[benzo[d][1,3]oxazine-4,3′-piperidin]-1′-yl)-3-(1-methyl-1H-imidazol-5-yl)-1-oxopropan-2-yl)carbamoyl)phenyl)carbamate]
25 | – | 123 | 33.5 | O=C(Nc1ccc(C(=O)N[C@@H](Cc2ccccc2)C(=O)N2CCC3(C2)OC(=O)Nc2ccc(Cl)cc23)cc1)OCCN1CCOCC1 (stereo partly drawn) [Example 191, 2-morpholinoethyl (4-(((2S)-1-(6-chloro-2-oxo-1,2-dihydrospiro[benzo[d][1,3]oxazine-4,3′-pyrrolidin]-1′-yl)-1-oxo-3-phenylpropan-2-yl)carbamoyl)phenyl)carbamate]
26 | 48.9 | 3.31 | – | COC(=O)Nc1ccc(C(=O)N[C@@H](CC(C)C)C(=O)N2CCC[C@@]3(C2)OC(=O)Nc2ccc(Cl)cc23)cc1 [Example 60, methyl (4-(((S)-1-((R)-6-chloro-2-oxo-1,2-dihydrospiro[benzo[d][1,3]oxazine-4,3′-piperidin]-1′-yl)-4-methyl-1-oxopentan-2-yl)carbamoyl)phenyl)carbamate]
27 | – | 0.6 | 0.6 | O=C1Nc2ccc(Cl)cc2[C@@]2(CCCN(C(=O)[C@H](Cc3ccccc3)NC(=O)c3ccc4[nH]c(=O)cc(O)c4c3)C2)O1 [Example 199]
28 | – | 13.3 | 41.9 | Cc1cc2cc(C(=O)N[C@@H](Cc3ccccc3)C(=O)N3CCC[C@@]4(C3)OC(=O)Nc3ccc(Cl)cc34)ccc2[nH]1 [Example 250]
29 | 5.47 | 1.42 | – | COC(=O)Nc1ccc(C(=O)N[C@@H](CC(=O)N2CC3CCCC32)C(=O)N2CCC[C@@]3(C2)OC(=O)Nc2ccc(Cl)cc23)cc1 (stereo partly drawn) [Example 94, methyl (4-(((2S)-4-(6-azabicyclo[3.2.0]heptan-6-yl)-1-((R)-6-chloro-2-oxo-1,2-dihydrospiro[benzo[d][1,3]oxazine-4,3′-piperidin]-1′-yl)-1,4-dioxobutan-2-yl)carbamoyl)phenyl)carbamate]
